Reference: patent publication US20250345384A1, “STABLE CYCLODEXTRIN FREE CARFILZOMIB FORMULATION” (AMGEN INC., priority 2020, published 2025)
In brackets after ≈: the same amount, converted by molar mass.

Key:
[1] = Visual comparison of carfilzomib in water, cyclodextrin and cyclodextrin-free formulations (FIG. 2); assay type: physicochemical; settings: CFZ-API concentration of 2 mg/mL
Description: Carfilzomib (CFZ) is a proteasomal inhibitor and active ingredient of KYPROLIS®, a lyophilized drug product which is for the treatment of multiple myeloma. The current commercial formulation of KYPROLIS contains CAPTISOL®, which is a cyclodextrin used to help solubility the CFZ-API. The present invention provides a stable, cyclodextrin-free formulations for CFZ-API in an aqueous solution which is suitable for injection. FIG. 2 illustrates (a) insoluble CFZ-API in water (b) current commercial KYPROLIS formulation containing CAPTISOL (middle vial); and (c) the cyclodextrin free chlorobutanol formulation of the invention (right vial). Each sample contains CFZ-API concentration of 2 mg/mL.

physchem = settings: pH 7, water

CC(C)C[C@H](NC(=O)[C@H](CCc1ccccc1)NC(=O)CN1CCOCC1)C(=O)N[C@@H](Cc1ccccc1)C(=O)N[C@@H](CC(C)C)C(=O)[C@@]1(C)CO1 [CFZ-API, Carfilzomib]
Visual solubility in water [1]: insoluble | solubility (physchem): 2 µg/mL (≈ 2.78 µM)
